According to patent US6593310B1, “Treatment of osteoporosis” (Arthropharm Pty. Ltd., priority 2000, dated 2003):

Columns and labels:
bone = experiment: treatment of mammals with polysulfated polysaccharides, effect on bone; format: in vivo
spinal fracture = conditions: post-menopausal women; cited from earlier work

## calcium pentosan polysulfate
bone; low dosages producing blood levels of 0.01 to 100 micrograms per ml, low continuous or high pulsed therapy dose
  occurrence or spread of osteoporosis: reduces the occurrence or spread of osteoporosis

## pentosan polysulfate
bone; high repeated dosages, mammals
  effect on bone (bone fragility): causes bone fragility

## NCCCC(O)(P(=O)(O)O)P(=O)(O)O [Fosamax, alendronate]
Spinal fracture
  reduction of risk of spinal fracture: ~50%
